Numbers after ± are expanded uncertainties. One block for each molecule: values may come before it.
Assay: wn = mass fraction of the nth substance listed
Details: 88.35 kPa, Liquid; for viscosity: Capillary tube (Ostwald / Ubbelohde) method

- viscosity (298.15 K, w1 = 0.2672): 0.8122 ± 0.081 mPa·s
- mass density (298.15 K, Weighing bottle method, w1 = 0.2672): 1180 ± 12 kg/m3
- viscosity (313.15 K, w1 = 0.29): 0.6778 ± 0.068 mPa·s
- mass density (313.15 K, Weighing bottle method, w1 = 0.29): 1192 ± 12 kg/m3
SMILES: [Cl-].[K+] [potassium chloride] + O

- viscosity (298.15 K, w1 = 0.2075): 1.198 ± 0.12 mPa·s
- mass density (298.15 K, Weighing bottle method, w1 = 0.2075): 1144 ± 11 kg/m3
- viscosity (313.15 K, w1 = 0.2579): 1.013 ± 0.1 mPa·s
- mass density (313.15 K, Weighing bottle method, w1 = 0.2579): 1187.2 ± 12 kg/m3
SMILES: O=P([O-])(O)O.[K+] [monopotassium phosphate] + O

- viscosity (298.15 K, w1 = 0.1156): 1.015 ± 0.1 mPa·s
- mass density (298.15 K, weighing bottle method, w1 = 0.1156): 1084.3 ± 11 kg/m3
- viscosity (313.15 K, w1 = 0.1337): 0.7917 ± 0.08 mPa·s
- mass density (313.15 K, weighing bottle method, w1 = 0.1337): 1097.7 ± 11 kg/m3
SMILES: O=S(=O)([O-])[O-].[K+].[K+] [potassium sulfate] + O

— the NIST ThermoML archive (doi:10.1016/j.fluid.2017.04.010)
